IC50 data for 13 compounds are collected here from patent US7151105B2, “Inhibitors of Hepatitis C virus RNA-dependent RNA polymerase, and compositions and treatments using the same” (Agouron Pharmaceuticals, Inc., priority 2004, dated 2006).

T1 sequence (P26663 2420-3010): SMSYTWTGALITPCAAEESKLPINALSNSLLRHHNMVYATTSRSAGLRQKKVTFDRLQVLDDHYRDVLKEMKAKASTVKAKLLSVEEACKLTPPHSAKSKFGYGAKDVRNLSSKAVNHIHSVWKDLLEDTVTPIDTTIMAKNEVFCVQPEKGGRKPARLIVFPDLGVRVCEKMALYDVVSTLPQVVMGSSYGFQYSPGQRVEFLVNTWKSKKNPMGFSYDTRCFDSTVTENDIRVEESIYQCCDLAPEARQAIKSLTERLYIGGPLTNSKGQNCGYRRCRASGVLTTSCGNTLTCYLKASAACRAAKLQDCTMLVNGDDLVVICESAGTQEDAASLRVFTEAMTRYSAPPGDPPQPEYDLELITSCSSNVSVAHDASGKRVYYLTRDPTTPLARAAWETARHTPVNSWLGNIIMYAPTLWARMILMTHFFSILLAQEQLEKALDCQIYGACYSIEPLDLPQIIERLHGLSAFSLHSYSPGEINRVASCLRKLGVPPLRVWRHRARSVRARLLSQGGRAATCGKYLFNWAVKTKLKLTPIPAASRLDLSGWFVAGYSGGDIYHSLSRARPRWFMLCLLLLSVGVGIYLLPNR

This experiment has as its target T1, Recombinant HCV polymerase (Hepatitis C virus genotype 1b, UniProt P26663).
T1 construct: Recombinant HCV polymerase was tested for its ability to perform primer/template-directed transcription
The experiment in a line: biochemical. The following applies: inhibition of polymerase-directed transcription; 30 min at 30° C; 30 nM enzyme; cpm data in triplicate. Summed up:
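Primer/template-directed RNA synthesis by 2.5 pmol HCV polymerase on poly(rC)300/biotin-dG12 with 1 μM GTP plus α-32P-GTP, in pH 7.2 Tris buffer with 10 mM MgCl2, for 30 min at 30 °C. Products were filter-captured and counted, with 1% DMSO final. IC50 was fitted from triplicate cpm; percent inhibition was reported where IC50 was impractical.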
Turning to `Cc1c(CC2=C(O)CC(CCc3ccc(C(C)(C)C#N)c(F)c3)(C3CCCC3)OC2=O)c(=O)n(-c2ccccc2)n1C` (stereo not shown) [A(100), 2-[4-(2-{2-Cyclopentyl-5-[(1,5-dimethyl-3-oxo-2-phenyl-2,3-dihydro-1H-pyrazol-4-yl)methyl]-4-hydroxy-6-oxo-3,6-dihydro-2H-pyran-2-yl}ethyl)-2-fluorophenyl]-2-methylpropanenitrile], the IC50 was determined as 79 nM.

With `COc1cc(CO)c(F)cc1CCC1(C2CCCC2)CC(O)=C(Cc2nc3nc(C)cc(C)n3n2)C(=O)O1` (stereo not shown) [A(80), 6-Cyclopentyl-3-[(5,7-dimethyl[1,2,4]triazolo[1,5-a]pyrimidin-2-yl)methyl]-6-{2-[5-fluoro-4-(hydroxymethyl)-2-methoxyphenyl]ethyl}-4-hydroxy-5,6-dihydro-2H-pyran-2-one], the half-maximal inhibitory concentration (IC50) was determined as 22 nM.

Regarding `Cc1cc(C)n2nc(CC3=C(O)CC(CCc4cnn(C(C)C)c4)(C4CCCC4)OC3=O)nc2n1` (stereo not shown) [A(62), 6-Cyclopentyl-3-[(5,7-dimethyl[1,2,4]triazolo[1,5-a]pyrimidin-2-yl)methyl]-4-hydroxy-6-[2-(1-isopropyl-1H-pyrazol-4-yl)ethyl]-5,6-dihydro-2H-pyran-2-one], the IC50 amounted to 60 nM. Turning to `CCn1cc(CCC2(C3CCCC3)CC(O)=C(Cc3nc4nc(C)cc(C)n4n3)C(=O)O2)cn1` (stereo not shown) [A(61), 6-Cyclopentyl-3[(5,7-dimethyl[1,2,4]triazolo[1,5-a]pyrimidin-2-yl)methyl]-6-[2-(1-ethyl-1H-pyrazol-4-yl)ethyl]-4-hydroxy-5,6-dihydro-2H-pyran-2-one], the concentration for half-maximal inhibition (IC50) is 140 nM.

As to `CCc1cc(CCC2(C3CCCC3)CC(O)=C(Cc3nc4nc(C)cc(C)n4n3)C(=O)O2)c(OC)cn1` (single isomer, unassigned) [A(38), 6-Cyclopentyl-3-[(5,7-dimethyl[1,2,4]triazolo[1,5-a]pyrimidin-2-yl)methyl]-6-[2-(2-ethyl-5-methoxypyridin-4-yl)ethyl]-4-hydroxy-5,6-dihydro-2H-pyran-2-one], the IC50 was 3 nM. As to `Cc1cc(C)n2nc(CC3=C(O)CC(CCc4ccnc(C(C)C)c4)(C4CCCC4)OC3=O)nc2n1` (stereo not shown) [A(33), 6Cyclopentyl-3-[(5,7-dimethyl[1,2,4]triazolo[1,5-a]pyrimidin-2-yl)methyl]-4-hydroxy-6-[2-(2-isopropylpyridin-4-yl)ethyl]-5,6-dihydro-2H-pyran-2-one], the IC50 turned out to be 7 nM. On to `CCc1cc(CCC2(C3CCCC3)CC(O)=C(Cc3nc4nc(C)cc(C)n4n3)C(=O)O2)c(OC)cn1` (single isomer, unassigned) [A(39), 6-Cyclopentyl-3-[(5,7-dimethyl[1,2,4]triazolo[1,5-a]pyrimidin-2-yl)methyl]-6-[2-(2-ethyl-5-methoxypyridin-4-yl)ethyl]-4-hydroxy-5,6-dihydro-2H-pyran-2-one], for which the IC50 came out at 6 nM. Next, `Cc1cc(C)n2nc(CC3=C(O)CC(CCc4cc(CC(F)(F)F)nc(CC(F)(F)F)c4)(C4CCCC4)OC3=O)nc2n1` (single isomer, unassigned; enantiomer 2) [A(11), Enantiomer 2 of 6-{2-[2,6-Bis(2,2,2-trifluoroethyl)pyridin-4-yl]ethyl}-6-cyclopentyl-3-[(5,7-dimethyl[1,2,4]triazolo[1,5-a]pyrimidin-2-yl)methyl]-4-hydroxy-5,6-dihydro-2H-pyran-2-one]: 8 nM; `C[C@@H](NS(=O)(=O)CC(F)(F)F)c1ccc(CCC2(C3CCCC3)CC(=O)CC(=O)O2)cc1` (stereo partly drawn) [A(88), N-((1R)-1-{4-[2-(2-cyclopentyl-4,6-dioxotetrahydro-2H-pyran-2-yl)ethyl]phenyl}ethyl)-2,2,2-trifluoroethanesulfonamide]: 27000 nM; `Cn1nc(C(F)(F)F)c(CC2=C(O)CC(CCc3ccc(C(C)(C)C#N)c(F)c3)(C3CCCC3)OC2=O)c1Cl` (stereo not shown) [A(97), 2-{4-[2-(5-{[5-Chloro-1-methyl-3-(trifluoromethyl)-1H-pyrazol-4-yl]methyl}-2-cyclopentyl-4-hydroxy-6-oxo-3,6-dihydro-2H-pyran-2-yl)ethyl]-2-fluorophenyl}-2-methylpropanenitrile]: 11 nM.

With `CCc1cc(CCC2(C3CCCC3)CC(O)=C(Cc3nc4ncc(C)cn4n3)C(=O)O2)c(OC)cn1` (stereo not shown) [A(4), 6-Cyclopentyl-6-[2-(2-ethyl-5-methoxypyridin-4-yl)ethyl]-4-hydroxy-3-[(6-methyl[1,2,4]triazolo[1,5-a]pyrimidin-2-yl)methyl]-5,6-dihydro-2H-pyran-2-one], the IC50 is 7 nM. Regarding `CCc1ccc(OC)c(CCC2(C3CCCC3)CC(=O)CC(=O)O2)n1` (stereo not shown) [A(5), 6-Cyclopentyl-6-[2-(6-ethyl-3-methoxypyridin-2-yl)ethyl]dihydro-2H-pyran-2,4(3H)-dione], the 50% inhibitory concentration (IC50) was 8600 nM. In the case of `CCc1cc(CCC2(C3CCCC3)CC(O)=C(Cc3nc4nc(C)cc(C)n4n3)C(=O)O2)ccc1NS(C)(=O)=O` (stereo not shown) [A(104), N-[4-(2-{2-cyclopentyl-5-[(5,7-dimethyl[1,2,4]triazolo[1,5-a]pyrimidin-2-yl)methyl]-4-hydroxy-6-oxo-3,6dihydro-2H-pyran-2-yl}ethyl)-2-ethylphenyl]methanesulfonamide], the IC50 amounted to 6 nM.
